Measured values from patent US20250107544A1, “4-(3-OXO-2-(PENT-2-ENYL)CYCLOPENTYL) BUTANOIC ACID MIXTURES AND USES THEREOF” (Valent BioSciences LLC., priority 2023, published 2025).

What was measured:
[1] = test system: unripened apples, Pink Lady variety; test: Apple coloration in Pink Lady variety (Example 1), percent red pixel area after foliar spray; assay type: in vivo; conditions: for Average % Red Pixel Area: 34 hours post spray; for % change from control: vs 0.05% Regulaid control
Text: 10 sets of unripened apples, Pink Lady variety, harvested three weeks before the normal harvest date, were each foliar sprayed with either 1) 0.05% Regulaid® as a control, 2) 30 ppm OPC4, 3) 100 ppm OPC4, 4) 300 ppm OPC4, 5) 1,000 ppm OPC4, 6) 50 ppm ACC, 7) 50 ppm jasmonic acid, 8) a mixture of 30 ppm OPC4 and 50 ppm ACC, 9) a mixture of 100 ppm OPC4 and 50 ppm ACC, 10) a mixture of 300 ppm OPC4 and 50 ppm ACC, 11) a mixture of 1,000 ppm OPC4 and 50 ppm ACC, 12) a mixture of 30 ppm OPC4 and 50 ppm jasmonic acid, 13) a mixture of 100 ppm OPC4 and 50 ppm jasmonic acid, 14) a mixture of 300 ppm OPC4 and 50 ppm jasmonic acid, 15) a mixture of 1,000 ppm OPC4 and 50 ppm jasmonic acid. 34 hours post spray application percent red pixel area (shaded) was measured. Percent red pixel area is an indication of the coloration of the apple fruit.
(§1) To determine if the mixture provided unexpected results, the observed combined efficacy (“OCE”) was divided by the expected combined efficacy (“ECE”) wherein the ECE is calculated by the Abbott method: […]
(§2) wherein ECE is the expected combined efficacy and in which A and B are the percent change from control given by the single active ingredients. If the ratio between the OCE of the mixture and the ECE of the mixture is greater than 1, then greater than expected interactions are present in the mixture. (Gisi, Synergistic Interaction of Fungicides in Mixtures, The American Phytopathological Society, 86:11, 1273-1279,1996).

[2] = test system: unripened apples, Pink Lady variety; test: Apple coloration in Pink Lady variety (Example 2), percent red pixel area after foliar spray; assay type: in vivo; conditions: for Average % Red Pixel Area: 34 hours post spray; for % change from control: vs 0.05% Regulaid control
Experimental: as §1, §2
10 sets of unripened apples, Pink Lady variety, harvested three weeks before the normal harvest date, were each foliar sprayed with either 1) 0.05% Regulaid® as a control, 2) 10 ppm OPC4, 3) 100 ppm OPC4, 4) 100 ppm ACC, 5) 100 ppm jasmonic acid, 6) a mixture of 10 ppm OPC4 and 100 ppm ACC, 7) a mixture of 100 ppm OPC4 and 100 ppm ACC, 8) a mixture of 10 ppm OPC4 and 100 ppm jasmonic acid and 9) a mixture of 100 ppm OPC4 and 100 ppm jasmonic acid. 34 hours post spray application percent red pixel area (shaded) was measured. Percent red pixel area is an indication of the coloration of the apple fruit.

SMILES: CC/C=C\C[C@H]1C(=O)CC[C@@H]1CC(=O)O [JA, jasmonic acid, reference compound]
- Average % Red Pixel Area ([1]; 50 ppm foliar spray): 39.64%
- % change from control ([1]; 50 ppm foliar spray): 4.22%
- Average % Red Pixel Area ([2]; 100 ppm foliar spray): 49.9%
- % change from control ([2]; 100 ppm foliar spray): 1.06%

SMILES: NC1(C(=O)O)CC1 [ACC, 1-amino-1-cyclopropanecarboxylic acid, reference compound]
- Average % Red Pixel Area ([1]; 50 ppm foliar spray): 9.33%
- % change from control ([1]; 50 ppm foliar spray): 0.23%
- Average % Red Pixel Area ([2]; 100 ppm foliar spray): 19.32%
- % change from control ([2]; 100 ppm foliar spray): −0.20%

SMILES: CCC=CCC1C(=O)CCC1CCCC(=O)O (centres unmarked) [OPC4, 4-(3-oxo-2-(pent-2-enyl)cyclopentyl) butanoic acid]
- Average % Red Pixel Area ([1]; 30 ppm foliar spray): 13.37%
- % change from control ([1]; 30 ppm foliar spray): 0.76%
- Average % Red Pixel Area ([1]; 100 ppm foliar spray): 36.02%
- % change from control ([1]; 100 ppm foliar spray): 3.74%
- Average % Red Pixel Area ([1]; 300 ppm foliar spray): 65.59%
- % change from control ([1]; 300 ppm foliar spray): 7.63%
- Average % Red Pixel Area ([1]; 1000 ppm foliar spray): 54.35%
- % change from control ([1]; 1000 ppm foliar spray): 6.15%
- Average % Red Pixel Area ([2]; 10 ppm foliar spray): 18.85%
- % change from control ([2]; 10 ppm foliar spray): −0.22%
- Average % Red Pixel Area ([2]; 100 ppm foliar spray): 43.59%
- % change from control ([2]; 100 ppm foliar spray): 0.80%
